Laboratory results from the Kinase Knowledgebase extract (Sharma et al. 2016).

Target: EGFR (human) (UniProt P00533)
Sequence (P00533 whole entry, looked up): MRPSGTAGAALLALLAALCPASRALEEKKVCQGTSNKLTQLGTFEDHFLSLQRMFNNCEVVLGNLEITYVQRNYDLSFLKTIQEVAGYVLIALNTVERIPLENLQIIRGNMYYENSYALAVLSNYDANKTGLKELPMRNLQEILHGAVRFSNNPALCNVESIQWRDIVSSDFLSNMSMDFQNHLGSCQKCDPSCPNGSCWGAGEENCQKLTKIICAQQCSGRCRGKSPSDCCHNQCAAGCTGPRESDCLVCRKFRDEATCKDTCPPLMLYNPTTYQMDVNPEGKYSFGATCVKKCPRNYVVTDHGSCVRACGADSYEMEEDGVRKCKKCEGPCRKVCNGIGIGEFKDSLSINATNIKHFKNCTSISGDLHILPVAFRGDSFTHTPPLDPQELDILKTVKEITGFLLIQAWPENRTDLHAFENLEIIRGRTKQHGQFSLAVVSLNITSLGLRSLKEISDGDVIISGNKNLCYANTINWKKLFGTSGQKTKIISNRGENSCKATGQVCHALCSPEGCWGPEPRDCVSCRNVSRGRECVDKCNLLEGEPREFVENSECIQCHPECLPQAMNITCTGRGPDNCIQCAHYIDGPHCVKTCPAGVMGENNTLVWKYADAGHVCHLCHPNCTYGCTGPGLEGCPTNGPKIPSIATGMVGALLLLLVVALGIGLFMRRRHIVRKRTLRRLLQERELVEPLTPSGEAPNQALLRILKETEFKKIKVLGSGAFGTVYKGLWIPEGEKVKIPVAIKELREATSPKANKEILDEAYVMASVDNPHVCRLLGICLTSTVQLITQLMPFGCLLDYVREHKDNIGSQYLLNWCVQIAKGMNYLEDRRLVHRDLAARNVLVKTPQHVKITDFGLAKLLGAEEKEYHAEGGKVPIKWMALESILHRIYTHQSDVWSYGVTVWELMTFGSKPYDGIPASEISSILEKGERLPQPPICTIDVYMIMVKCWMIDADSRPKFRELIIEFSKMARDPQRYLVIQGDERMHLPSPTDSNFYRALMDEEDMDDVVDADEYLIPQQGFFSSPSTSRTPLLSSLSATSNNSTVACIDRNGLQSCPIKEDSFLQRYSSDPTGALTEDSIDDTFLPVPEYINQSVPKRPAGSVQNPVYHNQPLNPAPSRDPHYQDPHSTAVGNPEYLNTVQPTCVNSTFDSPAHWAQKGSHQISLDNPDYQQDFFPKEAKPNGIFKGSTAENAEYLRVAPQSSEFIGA

IC50 [nM] | Compound
280 | N#C/C(=C\c1cc(O)c(O)cc1[N+](=O)[O-])C(=O)Nc1cccc(Cl)c1
490 | N#C/C(=C\c1cc(O)c(O)c(Br)c1)C(=O)Nc1cccc(Cl)c1
1800 | COc1cc(/C=C(\C#N)C(=O)Nc2ccccc2)cc(Br)c1O
280 | N#C/C(=C\c1cc(O)c(O)c(Br)c1Br)C(=O)Nc1cccc(Cl)c1
1400 | COc1cc(/C=C(\C#N)C(=O)Nc2cccc(Cl)c2)cc(Br)c1O
2600 | CCOc1cc(/C=C(\C#N)C(N)=O)cc(CSc2ccccc2)c1O
960 | N#C/C(C(=O)Nc1ccccc1)=C(\O)c1ccc(O)c(O)c1
2100 | COc1cc(/C=C(\C#N)C(=O)Nc2cccc(Cl)c2)ccc1O
1800 | COc1cc(/C=C(\C#N)C(=O)Nc2cccc(Cl)c2)cc([N+](=O)[O-])c1O
900 | Cc1cc(/C=C(\C#N)C(=O)Nc2cccc(Cl)c2)cc(C)c1O
420 | COc1cc(/C=C(\C#N)C(=O)Nc2cccc(Cl)c2)cc(C)c1O
680 | N#C/C(=C\c1cc(O)c(O)c(Cl)c1)C(=O)Nc1cccc(Cl)c1
1300 | Cc1cc(/C=C(\C#N)C(=O)Nc2cccc(Cl)c2)cc(O)c1O
1000 | N#C/C(=C\c1cc(O)c(O)c(C#N)c1)C(=O)Nc1cccc(Cl)c1
2300 | N#C/C(=C\c1cc(O)c(O)c(C(F)(F)F)c1)C(=O)Nc1cccc(Cl)c1
680 | COc1cc(/C=C(\C#N)C(=O)Nc2cccc(Cl)c2)cc(Cl)c1O
1100 | N#C/C(=C\c1cc(Br)c(O)c(Br)c1)C(=O)Nc1cccc(Cl)c1
1400 | COc1cc(/C=C(\C#N)C(=O)Nc2cccc(Cl)c2)cc(S(C)(=O)=O)c1O

Compound | IC50 [nM]
COc1cc(/C=C(\C#N)C(=O)Nc2cccc(Cl)c2)cc(F)c1O | 1600
Cc1cccc(NC(=O)/C(C#N)=C/c2ccc(O)c(O)c2)c1 | 2100
N#C/C(=C\c1cc(O)c(O)c(F)c1)C(=O)Nc1cccc(Cl)c1 | 600
N#C/C(=C\c1ccc(O)c(O)c1)C(=O)Nc1cccc(Cl)c1 | 1400
COc1cc(/C=C(\C#N)C(=O)Nc2ccccc2)cc(Cl)c1O | 1600
N#C/C(=C\c1cc(O)c(O)c(Cl)c1)C(=O)Nc1ccccc1 | 1200
